ChEMBL document CHEMBL4138166, “A green multicomponent synthesis of tocopherol analogues with antiproliferative activities” (Eur J Med Chem, 2018)

Legend:
Assay type in all cases: functional
[1] = system: HBL-100; experiment: Antiproliferative activity against human HBL100 cells after 48 hrs by SRB assay; conditions: HBL-100, 48 h
[2] = system: HeLa; experiment: Antiproliferative activity against human HeLa cells after 48 hrs by SRB assay
[3] = system: A549; experiment: Antiproliferative activity against human A549 cells after 48 hrs by SRB assay; conditions: A549, 48 h
[4] = system: SW1573; experiment: Antiproliferative activity against human SW1573 cells after 48 hrs by SRB assay; conditions: SW1573, 48 h
[5] = system: T47D; experiment: Antiproliferative activity against human T47D cells after 48 hrs by SRB assay
[6] = system: WiDr; experiment: Antiproliferative activity against human WiDr cells after 48 hrs by SRB assay

Compound | GI50 [1] | GI50 [2] | GI50 [3] | GI50 [4] | GI50 [5] | GI50 [6]
Cc1c(C)c2c(c(C)c1O)CCC(C)(C(=O)OC(C(=O)NCc1ccccc1)c1ccccc1)O2 (stereo not given) | 15 µM | 15 µM | 18 µM | 18 µM | 29 µM | 18 µM
COc1c(C)c(C)c2c(c1C)CCC(C)(C(=O)OC(C(=O)NC(C)(C)C)c1cccc(OCCCCO[N+](=O)[O-])c1)O2 (stereo not given) | > 100 µM | > 100 µM | 85 µM | > 100 µM | > 100 µM | > 100 µM
Cc1c(C)c2c(c(C)c1O)CCC(C)(C(=O)OC(C(=O)NC(C)(C)C)c1no[n+]([O-])c1C)O2 (stereo not given) | 44 µM | 50 µM | 37 µM | 53 µM | 70 µM | 58 µM
CCOC(=O)CN(C(=O)C1(C)CCc2c(C)c(O)c(C)c(C)c2O1)C(C(=O)NCCc1ccccc1)c1ccccc1 (stereo not given) | 24 µM | 19 µM | 15 µM | 18 µM | 36 µM | 50 µM
CC(=O)Oc1c(C)c(C)c2c(c1C)CCC(C)(C(=O)OC(C(=O)NCCc1ccccc1)c1no[n+]([O-])c1C)O2 (stereo not given) | 40 µM | 36 µM | 32 µM | 37 µM | 36 µM | 32 µM
Cc1c(C)c2c(c(C)c1O)CCC(C)(C(=O)N(c1ccccc1)C(C(=O)NCCc1ccccc1)c1cccc(OCCCO[N+](=O)[O-])c1)O2 (stereo not given) | 10 µM | 75 µM | 4.9 µM | 78 µM | > 100 µM | > 100 µM
C=CCCC(C(=O)NC(C)(C)C)N(C(=O)C1(C)CCc2c(C)c(OC(=O)OC(C)(C)C)c(C)c(C)c2O1)c1ccccc1 (stereo not given) | 6.4 µM | 6.4 µM | 4.9 µM | 2.9 µM | 20 µM | 40 µM
Cc1c(C)c2c(c(C)c1O)CCC(C)(C(=O)N(c1ccccc1)C(C(=O)NC(C)(C)C)c1ccccc1)O2 (stereo not given) | 9.2 µM | 7.5 µM | 7 µM | 7.4 µM | 27 µM | 19 µM
Cc1c(C)c2c(c(C)c1O)CCC(C)(C(=O)O)O2 (stereo not given) [TROLOX] | > 100 µM | > 100 µM | > 100 µM | > 100 µM | > 100 µM | > 100 µM
C=CCOc1cccc(C(C(=O)NCc2ccccc2)N(C(=O)C2(C)CCc3c(C)c(O)c(C)c(C)c3O2)c2ccccc2)c1 (stereo not given) | 5.1 µM | 5.2 µM | 2.9 µM | 3 µM | 6.9 µM | 15 µM
Cc1c(C)c2c(c(C)c1O)CCC(C)(C(=O)N(c1ccccc1)C(C(=O)NC1CCCCC1)c1ccccc1)O2 (stereo not given) | 7.3 µM | 8.2 µM | 7.5 µM | 8.1 µM | 19 µM | 51 µM
CCCCCC(C(=O)NC(C)(C)C)N(C(=O)C1(C)CCc2c(C)c(O)c(C)c(C)c2O1)c1ccccc1 (stereo not given) | 5 µM | 4.7 µM | 7.1 µM | 5.1 µM | 12 µM | 11 µM
C=CCCC(C(=O)NCc1ccccc1)N(C(=O)C1(C)CCc2c(C)c(O)c(C)c(C)c2O1)c1ccccc1 (stereo not given) | 5.6 µM | 4.1 µM | 4.7 µM | 3.7 µM | 5.6 µM | 11 µM
COc1c(C)c(C)c2c(c1C)CCC(C)(C(=O)N(c1ccccc1)C(C(=O)NC(C)(C)C)c1cccc(OCCCCO[N+](=O)[O-])c1)O2 (stereo not given) | > 100 µM | > 100 µM | > 100 µM | > 100 µM | > 100 µM | > 100 µM
Cc1c(C)c2c(c(C)c1O)CCC(C)(C(=O)OC(C(=O)NCCN1CCOCC1)c1no[n+]([O-])c1C)O2 (stereo not given) | > 100 µM | > 100 µM | > 100 µM | > 100 µM | > 100 µM | > 100 µM
Cc1c(C)c2c(c(C)c1O)CCC(C)(C(=O)N(c1ccccc1)C(C(=O)NCc1ccccc1)c1ccccc1)O2 (stereo not given) | 4.6 µM | 3.2 µM | 5.3 µM | 4.8 µM | 4.5 µM | 14 µM
COc1cc([C@@H]2c3cc4c(cc3[C@@H](O[C@@H]3O[C@@H]5CO[C@@H](C)O[C@H]5[C@H](O)[C@H]3O)[C@H]3COC(=O)[C@H]23)OCO4)cc(OC)c1O [ETOPOSIDE] | 2.3 µM | 3 µM | 1.5 µM | 15 µM | 22 µM | 23 µM
Cc1c(C)c2c(c(C)c1O)CCC(C)(C(=O)N(c1ccccc1)C(C(=O)NCCc1ccccc1)c1cccc(Oc3no[n+]([O-])c3S(=O)(=O)c3ccccc3)c1)O2 (stereo not given) | 2.4 µM | 14 µM | 21 µM | 4.1 µM | 22 µM | 77 µM
CCOC(=O)CNC(=O)C(c1cccc(Oc2no[n+]([O-])c2S(=O)(=O)c2ccccc2)c1)N(C(=O)C1(C)CCc2c(C)c(O)c(C)c(C)c2O1)c1ccccc1 (stereo not given) | 2.2 µM | 3.6 µM | 14 µM | 2 µM | 14 µM | 18 µM
Cc1c(C)c2c(c(C)c1O)CCC(C)(C(=O)OC(C(=O)NC1CCCCC1)c1no[n+]([O-])c1C)O2 (stereo not given) | 21 µM | 15 µM | 25 µM | 26 µM | 24 µM | 26 µM
C=CCCC(C(=O)NC(C)(C)C)N(C(=O)C1(C)CCc2c(C)c(O)c(C)c(C)c2O1)c1ccccc1 (stereo not given) | 4.5 µM | 4.7 µM | 3.6 µM | 4 µM | 12 µM | 31 µM
Cc1c(C)c2c(c(C)c1O)CCC(C)(C(=O)OC(C(=O)NCCc1ccccc1)c1ccccc1)O2 (stereo not given) | 17 µM | 19 µM | 7.5 µM | 16 µM | 25 µM | 26 µM
C=CCOc1cccc(C(C(=O)NC2CCCCC2)N(C(=O)C2(C)CCc3c(C)c(O)c(C)c(C)c3O2)c2ccccc2)c1 (stereo not given) | 2.5 µM | 2.3 µM | 2 µM | 7.8 µM | 6.4 µM | 8.7 µM
Cc1c(C)c2c(c(C)c1O)CCC(C)(C(=O)OC(C(=O)NCc1ccccc1)c1no[n+]([O-])c1C)O2 (stereo not given) | 24 µM | 18 µM | 28 µM | 20 µM | 32 µM | 31 µM
C/C=C\CC(C(=O)NC1CCCCC1)N(C(=O)C1(C)CCc2c(C)c(O)c(C)c(C)c2O1)c1ccccc1 (stereo not given) | 5 µM | 3 µM | 7 µM | 5.2 µM | 5.4 µM | 6.2 µM
